The target in data set [1] is human ether-a-go-go related gene (hERG) channel (Homo sapiens (Human), UniProt Q12809). As to the kind of experiment: hERG test. The following applies: HEK293 cells expressing hERG channel, whole cell patch clamp, concentration not given. Format: cell-based. The text has this:
For the purpose of assessing risk of an electrocardiogram QT interval prolongation, effects on delayed rectifier K+ current (IKr), which plays an important role in the ventricular repolarization process, was studied using HEK293 cells expressing human ether-a-go-go related gene (hERG) channel.
After a cell was retained at a membrane potential of −80 mV by whole cell patch clamp method using an automated patch clamp system (PatchXpress 7000A, Axon Instruments Inc.), IKr induced by depolarization pulse stimulation at +50 mV for 2 seconds and, further, repolarization pulse stimulation at −50 mV for 2 seconds was recorded. […] From the recording IKr, an absolute value of the tail peak current was measured based on the current value at the resting membrane potential using an analysis software (DataXpress ver. 1, Molecular Devices Corporation). Further, the % inhibition relative to the tail peak current before application of the test substance was calculated, and compared with the vehicle-applied group (0.1% dimethyl sulfoxide solution) to assess influence of the test substance on IKr.
In general terms: Block of hERG is tested as a sign of cardiac risk.

Data set [2] addresses CYP1A2 (Homo sapiens (Human), UniProt P05177). As to the kind of experiment: CYP inhibition test (CYP1A2). Format: in vitro ADME. The following applies: pooled human hepatic microsome, 7-ethoxyresorufin O-deethylation. The protocol: (§1) After the centrifugation at 3000 rpm for 15 minutes, resorufin (CYP1A2 metabolite) in the supernatant was quantified by a fluorescent multilabel counter and tributamide hydroxide (CYP2CP metabolite), mephenyloin 4′ hydroxide (CYP2C19 metabolite), […] (CYP2D6 metabolite), and terfenadine alcohol (CYP3A4 metabolite) were quantified by LC/MS/MS. Addition of only DMSO being a solvent dissolving a drug to a reaction system was adopted as a control (100%), remaining activity (%) was calculated at each concentration of a test drug added as the solution and […] was calculated by reverse presumption by a logistic model using a concentration and an inhibition rate.

The target in data set [3] is CYP2C9 (Homo sapiens (Human), UniProt P11712). As to the kind of experiment: CYP inhibition test (CYP2C9). Format: in vitro ADME. To be noted: pooled human hepatic microsome, tolbutamide methyl-hydroxylation. The method, then: as §1
Data set [4] concerns the target CYP2D6 (Homo sapiens (Human), UniProt P10635). As to the kind of experiment: CYP inhibition test (CYP2D6). Type of data set: in vitro ADME. The following applies: pooled human hepatic microsome, dextromethorphan O-demethylation. The method, then:
as §1

Data set [5] concerns the target CYP2C19 (Homo sapiens (Human), UniProt P33261). The data set is described as follows: CYP inhibition test (CYP2C19). Type of data set: in vitro ADME. The following applies: pooled human hepatic microsome, mephenytoin 4′-hydroxylation. The method, then: as §1
Data set [6] deals with Recombinant human BACE-1 (Homo sapiens (Human), UniProt P56817). The data set is described as follows: Assay of β-secretase-inhibiting activity. To be noted: Recombinant human BACE-1 7.4 nM, substrate peptide 18 nM, pH 5.0, 30° C. for 3 hours.
The target in data set [7] is CYP3A4 (Homo sapiens (Human), UniProt P08684). The data set is described as follows: CYP inhibition test (CYP3A4). To be noted: pooled human hepatic microsome, terfenedine hydroxylation. Format: in vitro ADME. The protocol:
as §1

Sequence of human ether-a-go-go related gene (hERG) channel (Q12809 whole entry): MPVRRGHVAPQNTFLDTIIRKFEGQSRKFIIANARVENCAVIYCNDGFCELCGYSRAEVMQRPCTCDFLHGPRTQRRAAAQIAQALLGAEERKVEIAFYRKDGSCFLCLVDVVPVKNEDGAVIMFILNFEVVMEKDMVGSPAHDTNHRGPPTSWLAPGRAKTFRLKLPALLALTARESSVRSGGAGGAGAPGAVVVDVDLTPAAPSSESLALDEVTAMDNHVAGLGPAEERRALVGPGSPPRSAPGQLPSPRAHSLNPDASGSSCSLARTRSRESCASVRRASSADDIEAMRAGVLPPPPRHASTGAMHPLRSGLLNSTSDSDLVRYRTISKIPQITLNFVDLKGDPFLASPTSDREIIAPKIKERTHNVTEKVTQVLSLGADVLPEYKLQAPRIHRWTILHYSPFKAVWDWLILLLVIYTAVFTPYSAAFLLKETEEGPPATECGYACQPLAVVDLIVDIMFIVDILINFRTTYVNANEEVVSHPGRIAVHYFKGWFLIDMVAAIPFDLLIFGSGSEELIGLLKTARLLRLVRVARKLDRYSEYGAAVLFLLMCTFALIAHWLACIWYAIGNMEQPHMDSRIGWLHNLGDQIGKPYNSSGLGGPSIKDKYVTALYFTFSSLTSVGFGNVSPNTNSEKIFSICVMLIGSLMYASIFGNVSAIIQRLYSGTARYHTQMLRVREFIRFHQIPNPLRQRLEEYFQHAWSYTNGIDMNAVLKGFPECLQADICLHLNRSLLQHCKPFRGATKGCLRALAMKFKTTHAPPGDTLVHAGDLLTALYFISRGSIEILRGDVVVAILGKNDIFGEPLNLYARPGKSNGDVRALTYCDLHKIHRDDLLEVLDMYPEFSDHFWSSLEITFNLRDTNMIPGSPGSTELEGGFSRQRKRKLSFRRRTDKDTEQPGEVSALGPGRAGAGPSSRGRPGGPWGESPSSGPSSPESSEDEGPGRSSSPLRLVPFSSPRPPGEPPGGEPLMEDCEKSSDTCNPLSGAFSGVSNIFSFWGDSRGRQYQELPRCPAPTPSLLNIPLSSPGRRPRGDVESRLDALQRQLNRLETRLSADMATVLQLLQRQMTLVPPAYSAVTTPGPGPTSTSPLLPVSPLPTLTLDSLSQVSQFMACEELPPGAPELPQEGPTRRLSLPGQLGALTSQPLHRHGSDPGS
Sequence of CYP1A2 (P05177 whole entry): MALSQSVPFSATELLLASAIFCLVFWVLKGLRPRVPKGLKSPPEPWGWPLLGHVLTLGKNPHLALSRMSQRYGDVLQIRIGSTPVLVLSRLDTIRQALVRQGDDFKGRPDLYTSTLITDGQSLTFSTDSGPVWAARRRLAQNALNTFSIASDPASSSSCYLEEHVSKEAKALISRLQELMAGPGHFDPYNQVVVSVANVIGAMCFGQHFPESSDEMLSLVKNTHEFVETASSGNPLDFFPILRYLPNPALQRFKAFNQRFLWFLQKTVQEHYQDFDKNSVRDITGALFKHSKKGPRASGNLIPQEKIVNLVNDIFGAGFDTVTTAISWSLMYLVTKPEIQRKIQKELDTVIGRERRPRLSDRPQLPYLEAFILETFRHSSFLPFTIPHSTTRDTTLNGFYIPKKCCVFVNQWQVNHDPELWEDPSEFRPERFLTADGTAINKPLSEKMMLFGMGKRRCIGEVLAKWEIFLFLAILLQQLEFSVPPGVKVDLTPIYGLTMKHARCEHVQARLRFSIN
Sequence of Recombinant human BACE-1 (P56817 46-501): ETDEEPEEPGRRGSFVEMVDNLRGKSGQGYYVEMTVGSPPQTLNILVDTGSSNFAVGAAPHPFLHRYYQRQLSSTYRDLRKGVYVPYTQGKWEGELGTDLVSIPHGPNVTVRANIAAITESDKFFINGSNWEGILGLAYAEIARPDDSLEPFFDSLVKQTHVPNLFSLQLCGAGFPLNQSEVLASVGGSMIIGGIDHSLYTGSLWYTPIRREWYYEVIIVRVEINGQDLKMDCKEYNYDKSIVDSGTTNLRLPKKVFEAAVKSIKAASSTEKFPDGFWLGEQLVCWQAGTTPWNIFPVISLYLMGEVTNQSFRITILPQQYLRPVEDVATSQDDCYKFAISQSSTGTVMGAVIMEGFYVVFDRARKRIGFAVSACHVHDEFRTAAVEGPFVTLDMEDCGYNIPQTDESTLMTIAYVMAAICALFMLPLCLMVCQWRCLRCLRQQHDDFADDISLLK
Sequence of CYP3A4 (P08684 whole entry): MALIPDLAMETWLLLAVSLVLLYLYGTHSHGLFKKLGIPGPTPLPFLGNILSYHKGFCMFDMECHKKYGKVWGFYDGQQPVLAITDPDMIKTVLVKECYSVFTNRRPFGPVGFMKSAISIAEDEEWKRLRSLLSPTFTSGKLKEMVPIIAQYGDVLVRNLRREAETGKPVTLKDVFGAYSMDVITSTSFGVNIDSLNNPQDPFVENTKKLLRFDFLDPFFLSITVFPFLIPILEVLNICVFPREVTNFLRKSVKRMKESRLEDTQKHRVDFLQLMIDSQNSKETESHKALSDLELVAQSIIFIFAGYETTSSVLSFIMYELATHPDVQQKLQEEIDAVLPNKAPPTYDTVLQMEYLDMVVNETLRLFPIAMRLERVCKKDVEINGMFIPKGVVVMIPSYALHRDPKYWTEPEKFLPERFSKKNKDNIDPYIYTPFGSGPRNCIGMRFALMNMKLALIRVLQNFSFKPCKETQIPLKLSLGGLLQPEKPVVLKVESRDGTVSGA
Sequence of CYP2D6 (P10635 whole entry): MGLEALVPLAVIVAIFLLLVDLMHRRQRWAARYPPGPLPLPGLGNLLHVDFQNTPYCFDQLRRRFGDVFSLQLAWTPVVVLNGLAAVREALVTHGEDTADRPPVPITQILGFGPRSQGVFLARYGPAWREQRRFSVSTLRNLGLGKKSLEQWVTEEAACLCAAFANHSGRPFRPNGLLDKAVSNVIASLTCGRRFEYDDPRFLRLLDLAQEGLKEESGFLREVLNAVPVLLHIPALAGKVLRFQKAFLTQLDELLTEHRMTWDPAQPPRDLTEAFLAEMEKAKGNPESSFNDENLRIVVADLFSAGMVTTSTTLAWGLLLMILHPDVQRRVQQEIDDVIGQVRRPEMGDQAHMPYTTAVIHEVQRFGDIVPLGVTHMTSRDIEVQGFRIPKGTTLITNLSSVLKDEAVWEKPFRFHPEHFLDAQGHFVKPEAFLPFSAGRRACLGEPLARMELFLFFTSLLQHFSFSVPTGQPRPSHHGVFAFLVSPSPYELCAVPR
Sequence of CYP2C9 (P11712 whole entry): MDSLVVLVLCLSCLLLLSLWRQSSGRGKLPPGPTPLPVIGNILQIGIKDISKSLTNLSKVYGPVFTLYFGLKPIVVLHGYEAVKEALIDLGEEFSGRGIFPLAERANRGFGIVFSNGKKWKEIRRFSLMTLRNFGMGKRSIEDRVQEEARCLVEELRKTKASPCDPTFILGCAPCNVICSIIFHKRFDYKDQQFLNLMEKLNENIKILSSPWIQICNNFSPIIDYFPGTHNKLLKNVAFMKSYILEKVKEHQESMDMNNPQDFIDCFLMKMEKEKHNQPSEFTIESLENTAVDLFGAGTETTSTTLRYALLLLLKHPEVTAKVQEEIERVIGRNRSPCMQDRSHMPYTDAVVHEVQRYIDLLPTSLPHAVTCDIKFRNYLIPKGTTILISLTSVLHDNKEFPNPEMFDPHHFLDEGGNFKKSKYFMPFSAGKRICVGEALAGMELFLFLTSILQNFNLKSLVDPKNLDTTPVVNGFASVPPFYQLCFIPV
Sequence of CYP2C19 (P33261 whole entry): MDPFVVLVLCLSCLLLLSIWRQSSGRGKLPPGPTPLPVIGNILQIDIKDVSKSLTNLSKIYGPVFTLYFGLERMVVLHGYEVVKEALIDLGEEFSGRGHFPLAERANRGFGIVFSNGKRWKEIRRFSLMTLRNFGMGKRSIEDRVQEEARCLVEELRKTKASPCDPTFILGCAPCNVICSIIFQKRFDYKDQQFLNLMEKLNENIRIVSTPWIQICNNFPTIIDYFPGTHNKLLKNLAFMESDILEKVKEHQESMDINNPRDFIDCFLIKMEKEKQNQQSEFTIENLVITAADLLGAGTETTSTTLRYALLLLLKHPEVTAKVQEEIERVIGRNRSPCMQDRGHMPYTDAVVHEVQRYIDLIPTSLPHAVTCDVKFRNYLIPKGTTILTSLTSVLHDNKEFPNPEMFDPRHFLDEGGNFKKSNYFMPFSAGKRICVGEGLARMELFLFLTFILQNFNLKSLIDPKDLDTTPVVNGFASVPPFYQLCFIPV

Take `C=C1C[C@@](C)(c2cc(NC(=O)c3cnc(OC)cn3)cnc2C)N=C(N)S1` [Compound 102]: in data set [1], the “% inhibition of IKr tail peak current” value was 2.3%.

For `CNC(=O)c1ccc(-c2ccc(F)c([C@]3(C)C=CSC(N)=N3)c2)cn1` [Compound 92], in data set [1], the “% inhibition of IKr tail peak current” value turned out to be 7.9%.

Turning to `Cc1cc(C(=O)Nc2ccc(F)c([C@]3(C)C=CSC(N)=N3)c2)n(C)c1` [Compound 35], the IC50 in data set [2] was over 20 µM; in data set [3], over 20 µM; in data set [4], over 20 µM; in data set [5] it was over 20 µM; in data set [6], 0.096 µM; in data set [7] it was over 20 µM.

What is called IC50 is the concentration that gives 50% inhibition.

Source of the values: patent publication US9273053B2, “Sulfur-containing heterocyclic derivative having Beta secretase inhibitory activity” (Shionogi & Co., Ltd., priority 2008, dated 2016).
